Data: patent US20190018003A1, “TUMOR DISCRIMINATION METHOD, DIAGNOSTIC AGENT FOR TUMOR, AND SENSITIZER FOR TUMOR DIAGNOSIS” (TOTO LTD., priority 2017, published 2019)

What was measured:
[1] = tested on: WI-38 immortalized normal cells; assay: Co-culture in the same visual field, fluorescence of WI-38 cell region; type: cell-based, human; settings: Example 11, WI-38 cell line, ALA 2 mmol/l, particles 0.001 w/v %
Source text: Co-culture pertaining to the present example for having the tumor cells and the immortalized normal cells exist in the same visual field will be described with reference to FIGS. 1A and 1B. For the co-culture, there was used CytoSelect™ 24-Well Cell Co-Culture System (manufactured by COSMO BIO). The T24 cell line was subcultured in an MEM medium (MEM, GlutaMAX™ supplement (Thermo Fisher Scientific), 10 v/v % FBS (Thermo Fisher Scientific)). The cultured cells which reached a logarithmic growth phase 3 days or 4 days later were peeled off with Trypsin/EDTA (Thermo Fisher Scientific) and, after the reaction was terminated in an MEM medium, centrifuged. The cell pellet obtained was suspended in an MEM medium. The cell suspension was subjected to measurement of cell density and inoculated onto a well at a density of 4.4×10^4 cells/0.225 ml/well, the well having an insert 2 of an 8 mm diameter disposed for preparing a cell-free region therein, and cultured for 2 days to form a monolayer in region 3 around the insert 2.
WI-38 cells were subcultured in an MEM medium. […]
Detection of fluorescence was performed in the same manner as in Example 4 by using an inverted fluorescence microscope (ECLIPSE Ti-E, Nikon). Images having a visual field of 3300 μm (width)×2200 μm (length) were obtained, and relative fluorescence intensities were calculated in the same manner as in Example 5.

[2] = tested on: T24 urinary bladder cancer cells; assay: Fluorescence enhancement in T24 cells by separate administration of fluorescent dye (ALA) and particles, inverted fluorescence microscope; type: cell-based, human
Protocol: T24 cells (T24, JCRB0711) were prepared. This cell line was subcultured in an MEM medium (MEM, GlutaMAX™ supplement (Thermo Fisher Scientific), 10 v/v % FBS (Thermo Fischer Scientific)). The cultured cells which reached a logarithmic growth phase 3 days or 4 days later were peeled off with Trypsin/EDTA (Thermo Fisher Scientific) and, after the reaction was terminated in an MEM medium, centrifuged. The cell pellet obtained was suspended in an MEM medium. The cell suspension was subjected to measurement of cell density, inoculated onto a 6-well plate at a density of 3.6×10^4 cells/2 ml/well, and cultured for 3 days.
An aqueous ALA solution (50 mmol/l) was mixed into an MEM medium (MEM, GlutaMAX™ supplement (Thermo Fisher Scientific)) to form a 2 mmol/l ALA solution. Further, an aqueous solution of light scattering particles (2) (ii) was mixed into an MEM medium to form a 0.001 w/v % light scattering particle solution.
Evaluation was performed as follows. The medium of the T24 cells on a 6-well plate, obtained in Example 3, was removed by an aspirator, and thereto was added 2 ml of PBS (−) (Thermo Fisher Scientific). Once again, PBS (−) was removed by an aspirator, thereto was added 2 ml of an ALA solution, and the system was cultured for 2 hours. Then, the ALA solution on the 6-well plate was removed by an aspirator, thereto was added 2 ml of a light scattering particle solution, and the system was cultured for 2 hours. Further, the particle solution on the 6-well plate was removed by an aspirator, the residue was washed with HBSS (−) (Thermo Fisher Scientific), HBSS (−) was removed gain by an aspirator, to the residue was added 2 ml of HBSS (−), and the solution was used for observation and detection of fluorescence.
Observation and detection of fluorescence was performed by using an inverted fluorescence microscope (ECLIPSE Ti-E, Nikon). By using a halogen light source lamp and a 450 nm dichroic mirror, excitation light was irradiated through a 410 nm band pass filter of a 25 nm half-band width, and fluorescence was passed through a 600 nm long-pass filter. There were used an eyepiece of 10 times magnification and an objective lens of 20 times magnification and numerical aperture of 0.75. The irradiation aperture, exposure time, and gain were set to ND=8, 400 ms, and 14.0×, respectively. Fluorescent images were acquired by a cooling CCD color camera (DS-Fi3, Nikon) as digital images. By using an image analysis device IS-Elements AR ver.4.60 (Nikon), fluorescence was detected by subtracting luminance corresponding to dark noise from the image acquired, thereafter obtaining average luminance of all pixels where fluorescence is acquired, and calculating a fluorescence intensity. Also, the image acquired was observed visually.
Relative fluorescence intensity was calculated by using the fluorescence intensities acquired above according to the following formula:
[relative fluorescence intensity]=[fluorescence intensity under each condition]/[fluorescence intensity immediately after irradiation of observation light in the case of administration of fluorescent dye only]. […]
An aqueous ALA solution (50 mmol/l) was mixed into an MEM medium (MEM, GlutaMAX™ supplement (Thermo Fisher Scientific)) to form a 2 mmol/l ALA solution. An aqueous solution of silica particles having a particle size of 100 nm (sicastar, Silica Microsphere, Plain, 25 mg/ml, produced by Polyscience) was mixed into the MEM medium to form a 0.01 w/v % silica particle solution.
Evaluation was performed by removing the medium of the T24 cells on a 6-well plate, obtained in Example 3, under conditions where, in Example 4, PBS (−) and HBSS (−) were respectively changed to MEM medium and MEM medium (no glutamine, no phenol red (Thermo Fisher Scientific)), and the solution was used for detection of fluorescence. […]

Measured: Relative fluorescence intensity

NCC(=O)CCC(=O)O [fluorescent dye, 5-aminolevulinic acid]
0.1: [2]; Example 4, T24, ALA 2 mmol/l 2 h, then particles 0.001 w/v % 2 h, 150 seconds after observation light irradiation
0.4: [2]; Example 4, T24, ALA 2 mmol/l 2 h, then particles 0.001 w/v % 2 h, 50 seconds after observation light irradiation
1.0: [1] | [2]; Example 4, T24, ALA 2 mmol/l 2 h, then particles 0.001 w/v % 2 h, immediately after observation light irradiation, relative to dye only immediately after irradiation | [2]; Example 7, T24, ALA 2 mmol/l, administration of fluorescent dye only | [2]; Example 10, T24 cell line, ALA 2 mmol/l, particles 0.001 w/v % | [2]; Example 12, T24, ALA 2 mmol/l, silica particles 0.01 w/v %, immediately after observation light irradiation | [2]; Example 13, T24, ALA 2 mmol/l, polystyrene particles 0.01 w/v %, immediately after observation light irradiation | [2]; Example 14, T24, ALA 2 mmol/l, particles 0.001 w/v %, immediately after observation light irradiation | [2]; Example 15, T24, ALA 2 mmol/l, particles 0.001 w/v %, immediately after observation light irradiation
